In general, MIC refers to the smallest concentration in the dilution series that meets the test's criterion for growth inhibition. The low end stands for greater potency, the high end for weaker potency.

Results on one substance are retold here after paper PMC8548882, “The Trp-rich Antimicrobial Amphiphiles With Intramolecular Aromatic Interactions for the Treatment of Bacterial Infection” (Frontiers in Microbiology, 2021).

Ends that are not written are not given here.

One data set relates to S.typhimurium 7731. Type of data set: cell-based, Salmonella enterica serovar typhimurium C77-31. From the text: (§1) The tested strains were kindly provided by the laboratory of Veterinary Microbiology and Immunology, the College of Veterinary Medicine, Northeast Agricultural University (gram-negative bacteria, Salmonella enterica serovar typhimurium C77-31, Salmonella typhimurium ATCC 14028, Escherichia coli ATCC 25922, Pseudomonas aeruginosa ATCC 27853 and gram-positive bacteria, Staphylococcus aureus ATCC 29213, Staphylococcus aureus ATCC 43300, Staphylococcus epidermidis ATCC 12228, Staphylococcus aureus ATCC 25923).

The subject of another data set is S.epidermidis 12228. Type of data set: cell-based, Staphylococcus epidermidis ATCC 12228.
Description: as §1

In a further data set the test system is MRSA 43300. The format is cell-based, Staphylococcus aureus ATCC 43300. The settings on record: microtiter dilution, 1×10^5CFU/ml, 18–24h at 37°C, visible turbidity.
Description: as §1
(§2) The famous microtiter dilution, National Committee for Clinical Laboratory Standards, was adopted to measure the antimicrobial ability of the engineering peptides ([Chou et al., 2016]). In brief, the 50μl with serial dilution was incubated with the same volume bacteria (1×10^5CFU/ml in midi-logarithmic phase) in a 96-well plate 18–24h at 37°C. The positive control was the bacteria treated with culture medium and the negative control was merely culture medium. The MICs (minimum inhibitory concentrations) were defined as the lowest concentration of peptides that prevented the production of visible turbidity ([Tossi et al., 2000]).

For data set [1], the system named is panel of gram-negative and gram-positive bacteria. The conditions noted are these: over the eight strains of Table 2. As for the experimental part: as §2
Another data set deals with IPEC-J2 cells. Type of data set: cell-based, porcine. The settings on record: IPEC-J2; ratio of IC50 to GM. As for the experimental part:
(§3) The MTT (3-[4,5 dimethylthiozol-2-yl]-2,5-diphenylterazoliumbromide) dye was selected to analyze the cytotoxicity of peptides against the murine macrophage cell RAW 264.7 (National Collection of Authenticated Cell Cultures, Shanghai, China), human embryonic kidneys (HK293T), and the porcine intestinal epithelial cells (IPEC-J2) as in our previously study ([Li et al., 2020]). In short, the cells (10^4 cells/well) were seeded into 96-well plates and were cultivated overnight. Then the peptides with different final concentration (2μM, 4μM, 8μM, 16μM, 32μM, 64μM, and 128μM) were introduced into the plate and challenged with cells for 24h. After overnight incubation, the 50μl MTT (0.5mg/ml) was added into the cell cultures for 4h. Then the plate was centrifuged to discard the supernatants and obtain the formazan crystals. The DMSO (dimethyl sulfoxide) was employed as a solvent to dissolve the formazan crystals on the bottom of the plate and the optical density was read at 492nm with a microplate reader.

The next data set has as its system HEK 293T cells. The format is cell-based, human. The conditions noted are these: ratio of IC50 to GM. As for the experimental part:
as §3

In a further data set the test system is P. aeruginosa 27853. The format is cell-based, Pseudomonas aeruginosa ATCC 27853. Here is the method: The famous microtiter dilution, National Committee for Clinical Laboratory Standards, was adopted to measure the antimicrobial ability of the engineering peptides ([Chou et al., 2016]). In brief, the 50μl with serial dilution was incubated with the same volume bacteria (1×10^5CFU/ml in midi-logarithmic phase) in a 96-well plate 18–24h at 37°C. The positive control was the bacteria treated with culture medium and the negative control was merely culture medium. […] The antimicrobial performance of peptides against P. aeruginosa 27853 cells was further studied under the complicated physiological conditions ([Lyu et al., 2016]). […] The serum was also taken into the consideration for the adverse impact on the antimicrobial effect of peptides.

The subject of data set [2] is P. aeruginosa ATCC 27853 cells. Put plainly: Cytoplasmic membrane depolarization, diSC3-5. The settings on record: 1/2 MIC, 0s to 1,020s. The format is cell-based, Pseudomonas aeruginosa ATCC 27853. As for the experimental part:
The cytoplasmic membrane depolarization of peptides was analyzed with membrane potential-sensitive dye DISC3-5 ([Ma et al., 2011]). First, 0.4μM DISC3-5 (Sigma-Aldrich, Shanghai, China) was incubated with the P. aeruginosa ATCC 27853 cells (OD600=0.05) suspended in 5mM HEPES buffer supplied with 20mM glucose for 1h. Then 100mMK^+ was introduced into the mixture for the reason of keeping K^+ concentration equilibration of bacterial cytoplasmic and extracellular conditions. Afterward, the peptides were reacted with the bacterial cells and the fluorescence value was tracked over time to plot the fluorescence curve (excitation λ=622nm, emission λ=670nm).

The next data set deals with P. aeruginosa ATCC 27853. Put plainly: Transmission electron microscope. Type of data set: cell-based, Pseudomonas aeruginosa ATCC 27853. The conditions noted are these: MIC (1μM). From the text: (§4) The sample for the test of the Transmission Electron Microscope (TEM) was to follow the same procedure as SEM. After the overnight pre-fixation with 2.5% glutaraldehyde, the bacteria was then post-fixed with 2% osmium tetroxide (sealed ampule, Shanghai, China). Afterward, the samples were dehydrated with ethanol at a series of concentrations (50, 70, 90, and 100%) and substituted the 100% ethanol with 50% ethanol+50% acetone, 100% acetone, 50% acetone+50% epoxy resin, and 100% epoxy resin successively. Finally, the samples were sectioned and stained for observation.

For a further data set, the system named is S. aureus ATCC 29213. Put plainly: Transmission electron microscope. The conditions noted are these: MIC (2μM). Type of data set: cell-based, Staphylococcus aureus ATCC 29213.
Description: as §4

Data set [3] is described as follows: CD spectrum, secondary structure. The format is physicochemical. The settings on record: 150μM peptide. As for the experimental part: The circular dichroism (CD) spectrum was further determined by analysis the secondary structure of peptides in different membrane-mimic environments ([Dong et al., 2014b]). The two totally different mimic environments were 10mM PBS and 50% TFE solution and the final concentration of peptides was fixed at 150μM Then the samples were transferred into a rectangular quartz cuvette (1mm path length) and further underwent the scanning of J-820 spectropolarimeter (Jasco, Tokyo, Japan) at the speed of 50nm/min. The wavelengths ranged from 190 to 250nm and were recorded to plot the observed ellipticity curve. The observed value at each time point was the average of three scans. The results were presented of mean residue ellipticity, which was calculated from the observed ellipticity as follows. θM=θobs⋅1000/(c⋅l⋅n); ([Zhu et al., 2014a])

The next data set relates to normal skin tissue. The settings on record: mouse, in vivo, sc, 5 mg/kg.
Data set [4] concerns Pseudomonas aeruginosa ATCC 27853. Put plainly: Subcutaneous abscess model.
Description: The in vivo antimicrobial performance of peptides was assessed by the treatment effect of the subcutaneous bacterial abscess model ([Pletzer et al., 2017]). In brief, 24 female ICR mice (weighted 18–20g, WeiTonglihua Co., Ltd. (Beijing)) were divided into four groups and each group contained 6 mice (n=6). […] Then, the Pseudomonas aeruginosa ATCC 27853 cells (100μl, 10^8CFU/ml) were injected into the subcutaneous layer of the dorsum skin. […] The non-infected mice served as a control, which was infected and treated with saline.
The therapeutic effect of peptides was further evaluated by colony counting, and the appearance and the level of inflammatory cytokine ([Tan et al., 2020]). The appearance of abscesses was taking photos and the area of dermonecrotic tissue was measured and calculated with calipers at Day 3. The infected skin on the back of the mouse was harvested entirely and homogenized with saline at Day 3. The homogenate of abscess was spread on the MHA plates and cultivated for 18–24h at 37°C. Then the bacterial colony was counted for data analysis. The serum was collected for proinflammatory cytokines (TNF-α, IL-1α, IL-1β, and IL-2) tests at Day 3. The cytokine levels were determined by commercial ELISA kits (Nanjing Jiancheng Bioengineering Institute, Nanjing, China).
The histopathology of abscesses lesions was further analyzed by hematoxylin/eosin (HE) staining (Aladdin, Shanghai, China). The tissue samples at Day 3 were excised and fixed in 4% paraformaldehyde solution. In addition, the cell nuclei were stained blue and the cytoplasm was stained pink.

Description for normal skin tissue: The potential toxicity of peptides to normal skin tissues was further tested by TUNEL assay ([Huang et al., 2009]). […] The 100μl 100% DMSO treatment served as a positive control, which was well-known for its toxicity to induce skin necrosis. Then, the skin samples were harvested and were subjected to TUNEL assay and counterstain with 4,6-diamidino-2-phenylindole (DAPI).

As for VKKWVKKWVKKWVKKW-NH2 [VW5], the MIC against S.typhimurium 7731 turned out to be 1 µM; in the data set on S.epidermidis 12228, 2 µM; in the data set on MRSA 43300 it was 2 µM. The “GMMIC, geometric mean of the MICs” value in data set [1] was 1.68 µM. Further, the “Therapeutic index (TI)” value in the data set on IPEC-J2 cells was found to be 3051.34; in the data set on HEK 293T cells, 5090.03. Moreover, in the data set with P. aeruginosa 27853 (12.5% serum), the “change of MIC compared to the control” value was “did not change”. Besides, the “increase of MIC compared to the control” value in the data set with P. aeruginosa 27853 (50% serum) was “fourfold”. Besides, in data set [2], the “cytoplasmic membrane depolarization, diSC3-5 fluorescence over time” value is “dose-dependent effect”. In addition, the “ultrastructure (TEM)” value is given as “cellular contents of bacterial cells leaked” in the data set with P. aeruginosa ATCC 27853 and “diffused around the shrunken cells” in the data set with S. aureus ATCC 29213. Further, the “secondary structure (CD)” value is on record as “unordered conformation” in data set [3] (10mM sodium phosphate buffer) and “α-helical tendency” in data set [3] (50% TFE). In the data set on normal skin tissue, the “apoptotic cells in epidermal layer (TUNEL)” value is listed as “no obvious green fluorescence”. For the same substance, the “bacterial load in the abscess lesion” value in data set [4] (5mg/kg intraperitoneally twice a day, Day 3, n=6) is 12.72±2.26 ×10^9CFU/abscess. The substance further registered an IL-1β in serum in data set [4] (5mg/kg, Day 3, ELISA, saline 95.99±4.31) of 72.36 ± 4.15 pg/mL. Also, the IL-1α in serum in data set [4] (5mg/kg, Day 3, ELISA, saline 99.95±4.71) is 79.82 ± 4.79 pg/mL. The substance also showed a TNF-α in serum in data set [4] (5mg/kg, Day 3, ELISA, saline 1020.654±51.08) of 756.62 ± 39.12 pg/mL. Further, in data set [4] (5mg/kg, Day 3, ELISA, saline 1492.65±48.11), the IL-2 in serum was found to be 1296.25 ± 150.86 pg/mL. The “histological examination of abscess lesion, dermal tissue structures” value in data set [4] (5mg/kg, HE staining, Day 3) is reported as “relative integrity”.
